Results as given in US10550100B2, “5-[3-[piperzin-1-yl]-3-oxo-propyl]-imidazolidine-2,4-dione derivatives as ADAMTS 4 and 5 inhibitors for treating E.G. osteoarthritis” (GALAPAGOS NV, priority 2016, dated 2020).
Like-named read-outs stand apart in the source and are kept apart here.

What was measured:
Assay type in all cases: biochemical
[1] = target: human ADAMTS6 (Homo sapiens (Human), UniProt Q9UKP5); assay: hADAMTS-6 520 MMP FRET substrate XII cleavage assay; conditions: 37° C. for 2 h, read-out: hADAMTS-6 potency IC50
human ADAMTS6, sequence (Q9UKP5 other isoform, or with tags, fused parts or gaps): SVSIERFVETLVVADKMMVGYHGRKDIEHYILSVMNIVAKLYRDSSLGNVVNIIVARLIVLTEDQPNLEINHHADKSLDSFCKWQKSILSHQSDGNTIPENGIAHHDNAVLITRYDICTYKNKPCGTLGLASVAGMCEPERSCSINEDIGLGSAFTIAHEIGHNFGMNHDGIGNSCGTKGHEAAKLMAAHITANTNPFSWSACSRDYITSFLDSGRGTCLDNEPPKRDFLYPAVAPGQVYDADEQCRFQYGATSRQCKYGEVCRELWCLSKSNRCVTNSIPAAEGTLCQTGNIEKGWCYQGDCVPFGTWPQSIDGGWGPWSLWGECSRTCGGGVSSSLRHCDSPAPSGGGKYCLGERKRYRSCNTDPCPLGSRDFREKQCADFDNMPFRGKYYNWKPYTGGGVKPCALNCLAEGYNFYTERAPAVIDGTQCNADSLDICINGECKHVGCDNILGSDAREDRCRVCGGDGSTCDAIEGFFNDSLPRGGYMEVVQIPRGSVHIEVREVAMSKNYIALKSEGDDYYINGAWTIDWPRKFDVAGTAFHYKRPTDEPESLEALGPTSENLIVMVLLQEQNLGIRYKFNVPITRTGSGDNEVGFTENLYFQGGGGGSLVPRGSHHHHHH
From the text: The IC50 value for test compounds can be determined in a fluorescent based protease assay.
The basis for the assay is the cleavage of the substrate 520 MMP FRET substrate XII by human ADAMTS6.
The substrate contains sequence Arg-Pro-Lys-Pro-Tyr-Ala-Nva-Trp-Met-Lys (SEQ ID NO: 7) with attached a fluorescent probe and a quencher. Without ADAMTS6, the emission of the probe is quenched. If the substrate is cleaved by ADAMTS6, the emission of the probe is not quenched anymore. Inhibition of ADAMTS6 activity, will result in a decrease of the signal.
To perform the assay, 4 μL of a dilution series of compound in water, starting from 20 μM highest concentration, 1/5 dilution, is added to the wells. 2 ng ADAMTS6 enzyme is diluted in 25 mM Tris pH8.0, 0.05% CHAPS, 2.5 mM CaCl2 in a total volume of 26 μL (final concentration 0.73 nM). The reaction is started by addition of 10 μL of 1 μM 520 MMP FRET Substrate XII (final concentration, diluted in same buffer as described above) and the mixture is incubated at 37° C. for 2 h. […] After this incubation, cleavage of the substrate is measured using the Envision (Perkin Elmer, exc485/em530).

[2] = target: human TACE (Homo sapiens (Human), UniProt P78536); assay: hTACE 5FAM-[…]-5TAMRA cleavage assay; conditions: 75 min at room temperature, read-out: hTACE potency IC50
human TACE, sequence (P78536 215-671): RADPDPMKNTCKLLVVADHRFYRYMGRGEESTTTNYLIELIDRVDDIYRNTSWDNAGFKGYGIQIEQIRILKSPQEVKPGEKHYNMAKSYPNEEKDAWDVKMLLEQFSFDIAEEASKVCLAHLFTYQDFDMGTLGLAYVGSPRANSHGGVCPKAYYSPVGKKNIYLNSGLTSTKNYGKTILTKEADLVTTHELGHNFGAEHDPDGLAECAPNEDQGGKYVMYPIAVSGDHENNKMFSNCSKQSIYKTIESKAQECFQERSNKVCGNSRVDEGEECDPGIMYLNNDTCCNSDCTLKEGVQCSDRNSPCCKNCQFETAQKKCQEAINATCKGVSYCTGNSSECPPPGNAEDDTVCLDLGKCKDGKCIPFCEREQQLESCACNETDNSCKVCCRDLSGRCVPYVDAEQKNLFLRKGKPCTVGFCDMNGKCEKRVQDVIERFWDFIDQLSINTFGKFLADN
Experimental: Finally, the fluorescence is read on the Envision (Perkin Elmer) after an incubation of 75 min at room temperature (Excitation 485 nm, Emission 530).

[3] = target: human ADAMTS-5 (Homo sapiens (Human), UniProt Q9UNA0); assay: hADAMTS-5 TBIS-1 cleavage assay, Protocol 3; conditions: Protocol 3, TBIS-1 substrate, 90 min at 37° C.; read-out: hADAMTS-5 potency IC50
human ADAMTS-5, sequence (Q9UNA0 262-930): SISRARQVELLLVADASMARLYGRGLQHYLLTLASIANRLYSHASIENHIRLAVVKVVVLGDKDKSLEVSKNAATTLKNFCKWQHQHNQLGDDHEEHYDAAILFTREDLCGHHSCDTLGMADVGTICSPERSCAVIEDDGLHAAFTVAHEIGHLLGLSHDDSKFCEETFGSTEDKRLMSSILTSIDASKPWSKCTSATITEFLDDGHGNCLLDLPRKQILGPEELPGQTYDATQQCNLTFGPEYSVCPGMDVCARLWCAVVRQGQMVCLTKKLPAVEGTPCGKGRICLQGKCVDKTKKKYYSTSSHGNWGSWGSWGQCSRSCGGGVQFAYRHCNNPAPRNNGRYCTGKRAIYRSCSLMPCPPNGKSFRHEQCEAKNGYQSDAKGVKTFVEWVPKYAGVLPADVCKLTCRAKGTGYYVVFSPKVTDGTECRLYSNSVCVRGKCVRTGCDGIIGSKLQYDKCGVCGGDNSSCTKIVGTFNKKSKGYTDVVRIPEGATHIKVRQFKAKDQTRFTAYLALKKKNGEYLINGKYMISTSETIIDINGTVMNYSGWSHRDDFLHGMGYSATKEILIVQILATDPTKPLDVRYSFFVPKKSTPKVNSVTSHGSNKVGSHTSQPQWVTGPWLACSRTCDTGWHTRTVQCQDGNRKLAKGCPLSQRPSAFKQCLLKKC
Experimental: The reaction is initiated by adding to the assay plate TBIS-1 (10 μL, 4.5 μM, Anaspec) in the same buffer.
Finally, the fluorescence is read on the Envision (Perkin Elmer) after an incubation of 90 min at 37° C. (Excitation 485 nm, emission 530).

[4] = target: T1, human MMP13 (Homo sapiens (Human), UniProt P45452); assay: hMMP13 390 MMP FRET Substrate I cleavage assay, Protocol 1; conditions: Protocol 1, 390 MMP FRET Substrate I; read-out: hMMP-13 potency IC50
Experimental: (§1) The basis for the assay is the cleavage of the substrate 390 MMP FRET Substrate I (Anaspec Cat# AS-27076) by human MMP13 (Chemicon, Cat#CC068).
(§2) Human MMP13 is preactivated by incubated the enzyme in the same buffer complemented with 1 mM freshly prepared p-Aminophenylmercuric acetate (AMPA) for 1 h at 37° C.
(§3) The reaction is initiated by adding to the assay plate 390 MMP FRET Substrate I (10 μL, 2.5 μM) in the same buffer.
(§4) Finally, the fluorescence is read on the Envision (Perkin Elmer) after an incubation of 45 min at room temperature (Excitation 485 nm, Emission 530).

[5] = target: human MMP14 (Homo sapiens (Human), UniProt P50281); assay: hMMP14 390 MMP FRET Substrate I cleavage assay; conditions: 60 min at room temperature, read-out: hMMP-14 potency IC50
Experimental: The basis for the assay is the cleavage of the substrate 390 MMP FRET Substrate I (Anaspec Cat# AS-27076) by human MMP14 (Biomol, Cat#SE-259).
as §3
Finally, the fluorescence is read on the Envision (Perkin Elmer) after an incubation of 60 min at room temperature (Excitation 485 nm, Emission 530).

[6] = target: T1, human MMP13; assay: hMMP13 390 MMP FRET Substrate I cleavage assay, Protocol 2; conditions: Protocol 2, 390 MMP FRET Substrate I; read-out: hMMP-13 potency IC50
Experimental: as §1, §2, §3, §4

SMILES	IC50 [1]	IC50 ([2]; 5FAM-LAQAVRSSSRK-5TAMRA)	IC50 [3]	IC50 [4]	IC50 [5]	IC50 ([2]; 5FAM-[…]-5TAMRA)	IC50 [6]
COc1cc(C2CCN(C(=O)CC[C@H]3NC(=O)NC3=O)CC2)cc(F)c1F [Cpd 43, (R)-5-(3-(4-(3,4-difluoro-5-methoxy-phenyl)piperidin-1-yl)-3-oxopropyl) imidazolidine-2,4-dione]	25 to 50 nM	> 100 nM	> 100 nM	> 100 nM			
COc1cc(OC)cc(C2CCN(C(=O)CCC3(C)NC(=O)NC3=O)CC2)c1 (stereo not drawn) [Cpd 38, 5-(3-(4-(3,5-dimethoxy-phenyl)piperidin-1-yl)-3-oxopropyl)-5-methyl-imidazolidine-2,4-dione]	25 to 50 nM	> 100 nM	> 100 nM	> 100 nM			
COc1ccc(Cl)cc1C1CCN(C(=O)CCC2(C)NC(=O)NC2=O)CC1 (stereo not drawn) [Cpd 41, 5-(3-(4-(5-chloro-2-methoxy-phenyl)piperidin-1-yl)-3-oxopropyl)-5-methyl-imidazolidine-2,4-dione]			> 100 nM	> 100 nM			
Cc1ccccc1C1CCN(C(=O)CC[C@H]2NC(=O)NC2=O)CC1 [Cpd 58, (R)-5-(3-oxo-3-(4-o-tolylpiperidin-1-yl)propyl) imidazolidine-2,4-dione]	> 100 nM	> 100 nM	> 100 nM	> 100 nM			
COc1cc(C2CCN(C(=O)CCC3(C)NC(=O)NC3=O)CC2)cc(F)c1Cl (stereo not drawn) [Cpd 47, 5-(3-(4-(4-chloro-3-fluoro-5-methoxyphenyl)piperidin-1-yl)-3-oxopropyl)-5-methyl-imidazolidine-2,4-dione]	0.001 to 25 nM	> 100 nM		> 100 nM			
COc1cc(C2CCN(C(=O)CC[C@H]3NC(=O)NC3=O)CC2)c(C)cc1Cl [Cpd 33, (R)-5-(3-(4-(4-chloro-5-methoxy-2-methylphenyl)piperidin-1-yl)-3-oxopropyl) imidazolidine-2,4-dione]	25 to 50 nM	> 100 nM	> 100 nM	> 100 nM			
Cc1ccccc1C1CCN(C(=O)CCC2(C)NC(=O)NC2=O)CC1 (stereo not drawn) [Cpd 57, 5-methyl-5-(3-oxo-3-(4-o-tolylpiperidin-1-yl)propyl) imidazolidine-2,4-dione]	> 100 nM	> 100 nM	> 100 nM	> 100 nM			
COc1cc(C2CCN(C(=O)CCC3(C)NC(=O)NC3=O)CC2)ccc1Cl (stereo not drawn) [Cpd 36, 5-(3-(4-(4-chloro-3-methoxyl-phenyl)piperidin-1-yl)-3-oxopropyl)-5-methyl-imidazolidine-2,4-dione]	0.001 to 25 nM	> 100 nM		> 100 nM			
COc1cc(Cl)ccc1C1CCN(C(=O)CCC2(C)NC(=O)NC2=O)CC1 (stereo not drawn) [Cpd 44, 5-(3-(4-(4-chloro-2-methoxyphenyl)piperidin-1-yl)-3-oxopropyl)-5-methyl-imidazolidine-2,4-dione]	0.001 to 25 nM	> 100 nM	> 100 nM	> 100 nM	> 100 nM		
Cc1c(Cl)cc(Cl)cc1C1CCN(C(=O)CCC2(C)NC(=O)NC2=O)CC1 (stereo not drawn) [Cpd 49, 5-(3-(4-(3,5-dichloro-2-methylphenyl)piperidin-1-yl)-3-oxopropyl)-5-methyl-imidazolidine-2,4-dione]	25 to 50 nM	> 100 nM	> 100 nM	> 100 nM			
Cc1c(Cl)cc(Cl)cc1C1CCN(C(=O)CC[C@H]2NC(=O)NC2=O)CC1 [Cpd 48, (R)-5-(3-(4-(3,5-dichloro-2-methylphenyl)piperidin-1-yl)-3-oxopropyl) imidazolidine-2,4-dione]	50 to 100 nM	> 100 nM	> 100 nM	> 100 nM			
COc1cc(C2CCN(C(=O)CCC3(C)NC(=O)NC3=O)CC2)cc(F)c1F (stereo not drawn) [Cpd 45, 5-(3-(4-(3,4-difluoro-5-methoxyphenyl)piperidin-1-yl)-3-oxopropyl)-5-methyl-imidazolidine-2,4-dione]	0.001 to 25 nM	> 100 nM	> 100 nM	> 100 nM			
COc1cc(Cl)cc(C2CCN(C(=O)CC[C@@]3(C)NC(=O)NC3=O)CC2)c1 [Cpd 66, (R)-5-(3-(4-(3-chloro-5-methoxyphenyl)piperidin-1-yl)-3-oxopropyl)-5-methyl-imidazolidine-2,4-dione]	0.001 to 25 nM		> 100 nM			25 to 50 nM	> 100 nM
COc1cc(Cl)ccc1C1CCN(C(=O)CC[C@H]2NC(=O)NC2=O)CC1 [Cpd 42, (R)-5-(3-(4-(4-chloro-2-methoxy-phenyl)piperidin-1-yl)-3-oxopropyl) imidazolidine-2,4-dione]	25 to 50 nM	> 100 nM	> 100 nM	> 100 nM	> 100 nM		
COc1cc(C2CCN(C(=O)CCC3(C)NC(=O)NC3=O)CC2)ccc1F (stereo not drawn) [Cpd 55, 5-(3-(4-(4-fluoro-3-methoxyphenyl)piperidin-1-yl)-3-oxopropyl)-5-methyl-imidazolidine-2,4-dione]	50 to 100 nM	> 100 nM	> 100 nM	> 100 nM	> 100 nM		
CC1(CCC(=O)N2CCC(c3ccc(Cl)c(F)c3)CC2)NC(=O)NC1=O (stereo not drawn) [Cpd 54, 5-(3-(4-(4-chloro-3-fluorophenyl)piperidin-1-yl)-3-oxopropyl)-5-methyl-imidazolidine-2,4-dione]	50 to 100 nM	> 100 nM	> 100 nM	> 100 nM	> 100 nM		
COc1cc(OC)cc(C2CCN(C(=O)CC[C@H]3NC(=O)NC3=O)CC2)c1 [Cpd 34, (R)-5-(3-(4-(3,5-dimethoxy-phenyl)piperidin-1-yl)-3-oxopropyl) imidazolidine-2,4-dione]	50 to 100 nM	> 100 nM	> 100 nM	> 100 nM			
COc1cc(C2CCN(C(=O)CC[C@H]3NC(=O)NC3=O)CC2)cc(F)c1Cl [Cpd 46, (R)-5-(3-(4-(4-chloro-3-fluoro-5-methoxyphenyl)piperidin-1-yl)-3-oxopropyl) imidazolidine-2,4-dione]	0.001 to 25 nM	> 100 nM	50 to 100 nM	> 100 nM			
COc1cc(F)cc(C2CCN(C(=O)CCC3(C)NC(=O)NC3=O)CC2)c1 (stereo not drawn) [Cpd 50, 5-(3-(4-(3-fluoro-5-methoxyphenyl)piperidin-1-yl)-3-oxopropyl)-5-methyl-imidazolidine-2,4-dione]	50 to 100 nM	> 100 nM	> 100 nM	> 100 nM			
COc1cc(Cl)cc(C2CCN(C(=O)CC[C@H]3NC(=O)NC3=O)CC2)c1 [Cpd 67, (R)-5-(3-(4-(3-chloro-5-methoxyphenyl)piperidin-1-yl)-3-oxopropyl) imidazolidine-2,4-dione]			> 100 nM				> 100 nM
COc1cc(C2CCN(C(=O)CC[C@H]3NC(=O)NC3=O)CC2)ccc1Cl [Cpd 32, (R)-5-(3-(4-(4-chloro-3-methoxyphenyl)piperidin-1-yl)-3-oxopropyl) imidazolidine-2,4-dione]	25 to 50 nM	> 100 nM	> 100 nM	> 100 nM			
O=C1NC(=O)[C@@H](CCC(=O)N2CCC(c3ccc(Cl)c(F)c3)CC2)N1 [Cpd 51, (R)-5-(3-(4-(4-chloro-3-fluorophenyl)piperidin-1-yl)-3-oxopropyl) imidazolidine-2,4-dione]	50 to 100 nM	> 100 nM	> 100 nM	> 100 nM	> 100 nM		
